Values after ≈ are worked out from the molar mass of the structure shown. Active and inactive are the calls of the source. No cut-off for these calls is given here.
How the values were obtained:
RAW264.7 [1] = assay: Inhibition of LPS-induced NO production in mouse RAW264.7 cells preincubated for 2 hrs followed by LPS-stimulation and measured after 24 hrs by Griess reagent based assay; format: functional, cell-based; conditions: dose 3.3-33 µM, time 26.0 hrs
RAW264.7 [2] = assay: Inhibition of LPS-induced NO production in mouse RAW264.7 cells assessed as reduction in iNOS protein expression preincubated for 2 hrs followed by LPS-stimulation and measured after 24 hrs by Western blot analysis; format: functional, cell-based; conditions: dose 3.3-33 µM, time 26.0 hrs
Bacillus subtilis = assay: Antibacterial activity against Bacillus subtilis ATCC 6633 after 24 hrs by microbroth dilution method; format: functional
Staphylococcus aureus = assay: Antibacterial activity against Staphylococcus aureus ATCC 25923 after 24 hrs by microbroth dilution method; format: functional
Escherichia coli = assay: Antibacterial activity against Escherichia coli ATCC 25922 after 24 hrs by microbroth dilution method; format: functional
Candida albicans = assay: Antifungal activity against Candida albicans MYA-2867 at 100 ug/ml after 48 hrs by microbroth dilution method; format: functional, organism-based; conditions: dose 100.0 µg/ml
Candida parapsilosis = assay: Antifungal activity against Candida parapsilosis ATCC 22019 at 100 ug/ml after 48 hrs by microbroth dilution method; format: functional, organism-based; conditions: dose 100.0 µg/ml
Cryptococcus neoformans = assay: Antifungal activity against Cryptococcus neoformans ATCC 208821 at 100 ug/ml after 72 hrs by microbroth dilution method; format: functional, organism-based; conditions: dose 100.0 µg/ml

Row | MIC (Bacillus subtilis) [µg/mL] | MIC (Staphylococcus aureus) [µg/mL] | MIC (Escherichia coli) [µg/mL] | SMILES | inhibition (RAW264.7 [1]) | inhibition (RAW264.7 [2]) | Activity (Candida albicans) | Activity (Candida parapsilosis) | Activity (Cryptococcus neoformans)
1 | – | – | – | COc1ccc(C(=O)Cc2ccc(O)cc2)c(O)c1 | Dose-dependent effect | Dose-dependent effect | – | – | –
2 | 25 (≈ 121 µM) | 25 (≈ 121 µM) | 25 (≈ 121 µM) | CO[C@@H]1CC(=O)c2cc(C(N)=O)ncc21 | – | – | inactive | inactive | inactive
3 | 25 (≈ 142 µM) | 25 (≈ 142 µM) | 25 (≈ 142 µM) | NC(=O)c1cc2c(cn1)CCC2=O | – | – | inactive | inactive | inactive

Row | SMILES | MIC (Bacillus subtilis) [µg/mL] | MIC (Staphylococcus aureus) [µg/mL] | MIC (Escherichia coli) [µg/mL] | inhibition (RAW264.7 [1]) | inhibition (RAW264.7 [2]) | Activity (Candida albicans) | Activity (Candida parapsilosis) | Activity (Cryptococcus neoformans)
4 | COC(=O)[C@]1(O)C=Cc2cnc(C(N)=O)cc21 | 25 (≈ 107 µM) | 25 (≈ 107 µM) | 25 (≈ 107 µM) | Dose-dependent effect | Dose-dependent effect | inactive | inactive | inactive

Source: ChEMBL document CHEMBL4715867, “Amycolasporins and Dibenzoyls from Lichen-Associated Amycolatopsis hippodromi and Their Antibacterial and Anti-inflammatory Activities” (J Nat Prod, 2020)
